Columns and labels:
[1] = New Zealand White, rabbit, in vivo, 4 h
Procedure: A 100 microliter/30 G needle Hamilton syringe is used to administer a sub conjunctiva injection (n=2) of 20 microliters of 0.1M DSP at pH 7 into an eye of a New Zealand White Rabbit. The initial dose of DSP is 1.04 mg. […] The process is repeated for a total of 2 trials. About 23 micrograms of the approximate 1.04 mg subconjunctival injection of DSP are recovered from the whole eye after 4 hours. This illustrates the clearance effects of the transscleral pathway; in this case about 97.8 percent of the drug cleared the eye within four hours.

[2] = DSP in eye tissues after passive delivery from six chambered annular lens-shaped housing, immediate release (Example 2); assay type: in vivo, New Zealand White Rabbit; settings: rabbit eye, 0.5 M DSP pH 7, 6.47 mgs in each of 3 chambers, housing on eye 20 minutes, 4 hours after application
Procedure: A six chambered annular lens-shaped housing is used to passively administer dexamethasone sodium phosphate (DSP) into the eye for immediate release. Chambers 1, 3, and 5 each contain a 2 mm Avalon Sponge hydrated with 25 μl of hydrogel and are further loaded with 6.47 mgs of 0.5 M DSP at pH 7 in each chamber. […] The process is repeated for a total of 4 trials.

## C[C@@H]1C[C@H]2[C@@H]3CCC4=CC(=O)C=C[C@]4(C)[C@@]3(F)[C@@H](O)C[C@]2(C)[C@@]1(O)C(=O)COP(=O)(O)O [DSP, dexamethasone sodium phosphate]
[1]
  percent of the drug cleared the eye: about 97.8%
[2]
  DSP Total Drug, Conjunctiva: 6.2 ± 0.8 micrograms
  DSP Total Drug, Retina/Choroid: 1.1 ± 0.5 micrograms
  DSP Total Drug, Sclera: 4.3 ± 1.0 micrograms
  DSP Total Drug, Whole Eye: 14.9 ± 1.1 micrograms

— patent US20090143752A1, “Passive intraocular drug delivery devices and associated methods” (priority 2007, published 2009)
